ChEMBL document CHEMBL4613309, “Identification of 2-(4-(Phenylsulfonyl)piperazine-1-yl)pyrimidine Analogues as Novel Inhibitors of Chikungunya Virus” (ACS Med Chem Lett, 2020)

Tests used:
Chikungunya virus = test: microbe, parasite or virus in culture
in vitro = details: chlorocebus sabaeus, Vero cells

## CCNc1nc(C)cc(N2CCN(C(=O)c3ccc(Cl)cc3)CC2)n1
Chikungunya virus
  EC50: 32 µM
  EC90: 108 µM
In vitro
  CC50 at 120 h: 202 µM
